Source: patent US6451335B1, “Formulations and methods for providing prolonged local anesthesia” (Euro-Celtique S.A., priority 1998, dated 2002)
Structures can show the parent of a compound that is named as a salt.

Experiments:
rat sciatic nerve [1] = experiment: Duration of anesthesia of bupivacaine microspheres (LAB) with co-injected additives, hotplate foot withdrawal; assay type: in vivo; conditions: LAB 150 mg/kg perineural
Description: In this example, a large number of pharmaceutical agents were tested for activity in augmenting the duration of local anesthetic activity. Bupivacaine-containing microspheres at about 75% loading, by weight, were injected perineurally into rat sciatic nerve at a dose of 150 mg/kg (weight microspheres/weight rat) to dose of approximately 50 mg/nerve. For the injections, needle placement adjacent to the target nerve was optimized by intermittent electrical e stimulation of the target nerve (via the injection needle) with low amplitude current to produce limb flexion. For the injections, the microspheres were suspended in a carrier vehicle suitable for injection. While any pharmaceutically acceptable carrier vehicle is acceptable, for these experiments the carrier vehicle was 1% sodium carboxymethylcellulose and 1% Tween 80 in water.
Compounds to be tested were co-injected with bupivacaine containing microspheres (i.e., mixed as additives into the carrier vehicle) in a range of concentrations. Results are expressed as percent increase in duration relative to non-augmented durations that were obtained in the same animal model.
The duration of anesthesia was measured by the hotplate foot withdrawal method described above in Example 10 and refers to the time necessary for the animal to recover from maximal nerve latency (12 sec) to a latency of 7 seconds, approximately 50% recovery. The results are tabulated in Table 3 below as percent of control.

rat sciatic nerve [2] = experiment: as above; assay type: in vivo; conditions: read-out: Duration Anesthesia As Percent of Control
rat sciatic nerve [3] = experiment: Rat sciatic nerve model, sensory testing (hotplate hindpaw withdrawal latency); assay type: in vivo; conditions: for duration of sensory block: augmenting agent with bupivacaine-loaded microspheres vs contralateral side with bupivacaine-loaded microspheres without the agent
Description: (§1) The duration of local anesthesia induced by the bupivacaine-loaded microspheres, prepared from PLGA 65:35, with and without the co-administration of an augmenting agent, is tested in a rat sciatic nerve model for localized local anesthesia. […] The latency test determines the time, in seconds, before a rat withdraws its hindpaw from a hotplate set to a safe but uncomfortable temperature (56° C.).
(§2) Selected rats are injected with a solution containing a suspension of bupivacaine-loaded microspheres plus co-administered augmenting agent on one side and injected with a control on the contralateral side so that each rat serves as its own control. Each injection is adjacent to the sciatic nerve. The controls are bupivacaine-loaded microspheres without co-administered augmenting agent and microspheres without any bupivacaine.
As previously discussed, the degree of sensory local anesthesia is measured by determining the time or latency, in seconds, before each rat withdraws its hindpaw from a hotplate set to a safe but uncomfortable temperature. Maximum sciatic nerve sensory blockade is defined as having a latency of about 12 seconds or higher.
Twenty-four rats each receive an injection of bupivacaine-loaded controlled release microspheres into the left or right side, co-administered with a dextran containing injection solution. The contralateral side receive either bupivacaine-loaded microspheres at the same dose, or unloaded microspheres co-administered with a dextran injection solution.
Sensory hot plate latency is measured from the time of the injections until the latency declined to under 2 seconds.

rat sciatic nerve [4] = experiment: Rat sciatic nerve model, motor testing (4-point scale); assay type: in vivo; conditions: augmenting agent with bupivacaine-loaded microspheres vs contralateral side with bupivacaine-loaded microspheres without the agent
Description: as §1, §2
The degree of motor blockade is measured by scoring the appearance of the affected foot for the signs of loss of motor tone. The assessment is conducted as follows using a 4-point scale based on visual observation: (1) normal appearance, (2) intact dorsiflexion of foot with an impaired ability to splay toes when elevated by the tail, (3) toes and foot remained plantar flexed with no splaying ability, and (4) loss of dorsiflexion, flexion of toes, and impairment of gait.
Motor blockade is scored until the hind paws of motor blockades rats returned to a normal appearance.
Sensory and motor testing is conducted according to sections A and B, respectively, of EXAMPLE 10, above. Using the experimental protocol of section C of EXAMPLE 10, 24 rats are tested.
Sensory and motor testing is conducted according to sections A and B, respectively, of EXAMPLE 10, above.

[5] = Microdialysis of bupivacaine at i.m. injection site in quadriceps muscle; assay type: in vivo, Sprague-Dawley rat; conditions: 3 mg i.m., quadriceps femoris
Description: To determine whether bupivacaine is released from EDLA in two phases in-vivo, bupivacaine HCl and EDLA was injected into the quadriceps muscles of rats in which microdialysis catheters had been previously placed. Bupivacaine HCl was injected i.m. into the quadriceps femoris of a Sprague-Dawley rat around the area of a microdialysis catheter. […] This rapid escape is consistent with the very short duration of anesthetic action aqueous bupivacaine has in this model. Diffusion of bupivacaine, quantitated by HPLC, was from a single compartment that followed first order kinetics, k=0.25±0.04 min^−1. (SS=3.613). […] The first compartment was apparently identical to the mechanism of escape of soluble bupivacaine HCl, since the rate constant was essentially identical (k=0.22/minute). […] Calibration was determined in vivo by delivery of a 10 ug/ml solution of bupivacaine. […] Excellular bupivacaine was measured in the dialysate every 10 minutes. In vivo extracelluar concentration was determined from the dialysate concentration by factoring in the microdialysis probe recovery which had been previously determined. […]

superficial radial nerve = experiment: Local anesthesia to pin prick after injection around the superficial radial nerve in normal volunteers; assay type: in vivo, humans; conditions: n=6; EDLA 3 ml (37.5 mg total) or aqueous bupivacaine HCl 50 mg, single injection
Description: Finally, the two compartment release of bupivacaine from EDLA results in rapid onset and prolonged duration of local anesthesia in humans. Normal volunteers (n=6) received a single injection of 3 ml EDLA (37.5 mg total) or aqueous bupivacaine HCl (50 mg) around the superficial radial nerve. Onset of local anesthesia to pin prick over the anatomical snuff box was <3 hours with aqueous bupivacaine with duration of action 6-8 hours. Onset of local anesthesia with EDLA was <3 hours with duration of action 48-72 hours.

[6] = immediate release vasoconstrictor, at best; cited from earlier work

## O=C1NC(=O)C(c2ccccc2)(c2ccccc2)N1 [5,5-diphenylhydantoin]
Rat sciatic nerve [1]; % Additive Conc. 0.11
  Duration Anesthesia As Percent of Control: 152% of Control
Rat sciatic nerve [1]; % Additive Conc. 1.09
  Duration Anesthesia As Percent of Control: 138% of Control

## C[C@]12CC[C@@H](O)C[C@@H]1CC[C@@H]1[C@@H]2C(=O)C[C@@]2(C)[C@H]1CC[C@]2(O)C(=O)CO [Allotetrahydrocortisone, allotetrahydrocortisone]
Rat sciatic nerve [1]; % Additive Conc. 0.05
  Duration Anesthesia As Percent of Control: 100% of Control
Rat sciatic nerve [1]; % Additive Conc. 0.5
  Duration Anesthesia As Percent of Control: 117% of Control

## CC(=O)[C@H]1CC[C@H]2[C@@H]3CC[C@H]4C[C@H](O)CC[C@]4(C)[C@H]3C(=O)C[C@]12C [Alphaxalone]
Rat sciatic nerve [1]; % Additive Conc. 0.05
  Duration Anesthesia As Percent of Control: 169% of Control
Rat sciatic nerve [1]; % Additive Conc. 0.5
  Duration Anesthesia As Percent of Control: 123% of Control

## Nc1ccncc1 [Aminopyridine (4-AP), Aminopyridine]
Rat sciatic nerve [1]; % Additive Conc. 0.05
  Duration Anesthesia As Percent of Control: 77% of Control
Rat sciatic nerve [1]; % Additive Conc. 0.11
  Duration Anesthesia As Percent of Control: 92% of Control
Rat sciatic nerve [1]; % Additive Conc. 1.09
  Duration Anesthesia As Percent of Control: 131% of Control

## Cc1c(N(C)C)c(=O)n(-c2ccccc2)n1C [Aminopyrine]
Rat sciatic nerve [1]; % Additive Conc. 0.05
  Duration Anesthesia As Percent of Control: 146% of Control
Rat sciatic nerve [1]; % Additive Conc. 0.5
  Duration Anesthesia As Percent of Control: 62% of Control

## NC(=NCc1ccccc1)NC(=O)c1nc(Cl)c(N)nc1N [Benzamil]
Rat sciatic nerve [1]; % Additive Conc. 0.05
  Duration Anesthesia As Percent of Control: 83% of Control
Rat sciatic nerve [1]; % Additive Conc. 0.5
  Duration Anesthesia As Percent of Control: 154% of Control

## Clc1cccc(Cl)c1N=C1NCCN1 [Clonidine]
Rat sciatic nerve [1]; % Additive Conc. 0.05
  Duration Anesthesia As Percent of Control: 122% of Control
Rat sciatic nerve [1]; % Additive Conc. 0.5
  Duration Anesthesia As Percent of Control: 71% of Control

## COc1cc2c(c(OC)c1OC)-c1ccc(OC)c(=O)cc1[C@@H](NC(C)=O)CC2 [Colchicine]
Rat sciatic nerve [2]; % Additive Conc. 0.1, Placebo (in place of LAB)
  response vs control in vivo at 0.1 %: 0%
Rat sciatic nerve [2]; % Additive Conc. 10, no LAB
  response vs control in vivo at 10 %: 0%
Rat sciatic nerve [1]; % Additive Conc. 0.01
  Duration Anesthesia As Percent of Control: 104% of Control
Rat sciatic nerve [1]; % Additive Conc. 1.0
  Duration Anesthesia As Percent of Control: 277% of Control
Rat sciatic nerve [1]; % Additive Conc. 10
  Duration Anesthesia As Percent of Control: toxic

## CN1C(=O)CN=C(c2ccccc2)c2cc(Cl)ccc21 [Diazepam]
Rat sciatic nerve [1]; % Additive Conc. 0.05
  Duration Anesthesia As Percent of Control: 231% of Control
Rat sciatic nerve [1]; % Additive Conc. 0.5
  Duration Anesthesia As Percent of Control: 203% of Control

## CC1=NS(=O)(=O)c2cc(Cl)ccc2N1 [Diazoxide]
Rat sciatic nerve [1]; % Additive Conc. 0.05
  Duration Anesthesia As Percent of Control: 138% of Control
Rat sciatic nerve [1]; % Additive Conc. 0.5
  Duration Anesthesia As Percent of Control: 109% of Control

## Nc1cc(N2CCCCC2)nc(N)[n+]1[O-] [Minoxidil]
Rat sciatic nerve [1]; % Additive Conc. 0.05
  Duration Anesthesia As Percent of Control: 54% of Control
Rat sciatic nerve [1]; % Additive Conc. 0.5
  Duration Anesthesia As Percent of Control: 218-265% of Control

## C[C@@H]1O[C@@H](O[C@H]2C[C@@H](O)[C@]3(CO)[C@H]4[C@H](O)C[C@]5(C)[C@@H](C6=CC(=O)OC6)CC[C@]5(O)[C@@H]4CC[C@]3(O)C2)[C@H](O)[C@H](O)[C@H]1O [Ouabain]
Rat sciatic nerve [1]; % Additive Conc. 0.05
  Duration Anesthesia As Percent of Control: 154% of Control
Rat sciatic nerve [1]; % Additive Conc. 0.5
  Duration Anesthesia As Percent of Control: 178% of Control

## CC(=O)O[C@H]1C(=O)[C@@]2(C)[C@H]([C@H](OC(=O)c3ccccc3)[C@]3(O)C[C@H](OC(=O)[C@H](O)[C@@H](NC(=O)c4ccccc4)c4ccccc4)C(C)=C1C3(C)C)[C@]1(OC(C)=O)CO[C@@H]1C[C@@H]2O [Taxol]
Rat sciatic nerve [1]; % Additive Conc. 0.11
  Duration Anesthesia As Percent of Control: 104% of Control
Rat sciatic nerve [1]; % Additive Conc. 0.5
  Duration Anesthesia As Percent of Control: 82% of Control
Rat sciatic nerve [1]; % Additive Conc. 1.09
  Duration Anesthesia As Percent of Control: 108% of Control

## CC[N+](CC)(CC)CC [Tetraethylammonium]
Rat sciatic nerve [1]; % Additive Conc. 0.05
  Duration Anesthesia As Percent of Control: 95% of Control
Rat sciatic nerve [1]; % Additive Conc. 0.5
  Duration Anesthesia As Percent of Control: 123% of Control

## COc1ccc2c(c1)CC[C@@H]1[C@@H]2CC[C@]2(C)[C@@H](NCCCCCCN3C(=O)C=CC3=O)CC[C@@H]12 [U-73, 122, 1[6-[[17-beta-3-methoxyestra-1,3,5(10)-triene-17-yl]amino]hexl]1-H-pyrrole-2,5-dione]
Rat sciatic nerve [1]; % Additive Conc. 0.05
  Duration Anesthesia As Percent of Control: 106% of Control
Rat sciatic nerve [1]; % Additive Conc. 0.5
  Duration Anesthesia As Percent of Control: 115% of Control

## CCCC(CCC)C(=O)O [Valproic Acid]
Rat sciatic nerve [1]; % Additive Conc. 0.05
  Duration Anesthesia As Percent of Control: 152% of Control
Rat sciatic nerve [1]; % Additive Conc. 0.5
  Duration Anesthesia As Percent of Control: 138% of Control

## CC[C@]1(O)C[C@@H]2CN(CCc3c([nH]c4ccccc34)[C@@](C(=O)OC)(c3cc4c(cc3OC)N(C)[C@H]3[C@@](O)(C(=O)OC)[C@H](OC(C)=O)[C@]5(CC)C=CCN6CC[C@]43[C@@H]65)C2)C1 [Vinblastine]
Rat sciatic nerve [1]; % Additive Conc. 0.05
  Duration Anesthesia As Percent of Control: 158% of Control
Rat sciatic nerve [1]; % Additive Conc. 0.11
  Duration Anesthesia As Percent of Control: 37% of Control
Rat sciatic nerve [1]; % Additive Conc. 1.09
  Duration Anesthesia As Percent of Control: 40% of Control

## CC(N)Cc1ccccc1 (centres unmarked) [amphetamine]
Rat sciatic nerve [3]
  duration of sensory block: significantly longer duration of sensory block
Rat sciatic nerve [4]
  duration of motor block: significantly increased duration of motor block

## CCCCN1CCCCC1C(=O)Nc1c(C)cccc1C (centres unmarked) [bupivacaine HCl]
[5]
  k, first order escape of bupivacaine from i.m. injection site (single compartment): 0.25 ± 0.04 min⁻¹
Superficial radial nerve
  duration of action of local anesthesia: 6 to 8 h

## CN[C@@H](C)[C@H](O)c1ccccc1 [ephedrine]
Rat sciatic nerve [3]
  duration of sensory block: significantly longer duration of sensory block
Rat sciatic nerve [4]
  duration of motor block: significantly increased duration of motor block

## CNC[C@H](O)c1ccc(O)c(O)c1 [epinephrine]
Rat sciatic nerve [3]
  duration of sensory block: significantly longer duration of sensory block
Rat sciatic nerve [4]
  duration of motor block: significantly increased duration of motor block
[6]
  prolongation of local anesthetic activity: ≤ 1 h

## Dextran
Rat sciatic nerve [3]
  duration of sensory block: significantly longer duration of sensory block
Rat sciatic nerve [3]; unloaded microspheres with dextran alone
  sensory blockade: no sensory blockade
Rat sciatic nerve [4]
  duration of motor block: significantly increased duration of motor block
Rat sciatic nerve [1]; % Additive Conc. 3
  Duration Anesthesia As Percent of Control: 46-144% of Control
